Columns and labels:
Type in all cases: cell-based
[1] = test system: human Burkitt's lymphoma cell line Namalwa; assay: Caspase cascade activation assay in Namalwa cells; settings: Burkitts lymphoma cell, 48 h assay, read-out: Caspase Activation Potency EC50 Namalwa
[2] = test system: human lung cancer cell line H1299; assay: Inhibition of cell proliferation (GI50, CellTiter-Glo) in H1299 cells; settings: NCI-H1299, 48 h, dose for 50% inhibition of cell proliferation
Procedure: (§1) Human breast cancer cell lines T-47D, MX-1 and MDAMB435, human colon cancer cell line HT29, and human lung cancer cell line H1299 were grown and harvested as in Example 26. An aliquot of […] of cells (4.4×10^4 cells/mL) was added to a well of a 96-well microtiter plate containing 5 μL of a 10% DMSO in RPMI-1640 media solution containing 10 nM to 100 μM of N-(3,4-methylenedioxybenzyl)-6-phenylthieno[3,2-d]pyrimidin-4-amine (1 nM to 10 μM final). An aliquot of 45 μL of cells was added to a well of a 96-well microtiter plate containing 5 μL of a 10% DMSO in RPMI-1640 media solution without compound as the control sample for maximal cell proliferation (LMax). The samples were mixed by agitation and then incubated at 37° C. for 48 h in a 5% CO2-95% humidity incubator. After incubation, the samples were removed from the incubator and 25 μL of CellTiter-Glo™ reagent (Promega) was added. The samples were mixed by agitation and incubated at room temperature for 10-15 min. Plates were then read using a luminescent plate reader (Model SPECTRAfluor Plus, Tecan) to give Ltest values.
(§2) Baseline for GI50 (dose for 50% inhibition of cell proliferation) of initial cell numbers was determined by adding an aliquot of 45 μL of cells or 45 μL of media, respectively, to wells of a 96-well microtiter plate containing 5 μL of a 10% DMSO in RPMI-1640 media solution. The samples were mixed by agitation and then incubated at 37° C. for 0.5 h in a 5% CO2-95% humidity incubator. After incubation, the samples were removed from the incubator and 25 μL of CellTiter-Glo™ reagent (Promega) was added. The samples were mixed by agitation and incubated at 37° C. for 10-15 min at room temperature in a 5% CO2-95% humidity incubator. Fluorescence was read as above, (Lstart) defining luminescence for initial cell number used as baseline in GI50 determinations.
(§3) GI50 (dose for 50% inhibition of cell proliferation) is the concentration where [(LTest−Lstart)/(LMax−Lstart)]=0.5.

[3] = test system: human B cell lymphoblastoid cell line Ramos; assay: Caspase cascade activation assay in Ramos cells; settings: 48 h assay, read-out: Caspase Activation Potency EC50 Ramos
[4] = test system: human hepatocellular carcinoma cell line SNU398; assay: Caspase cascade activation assay in SNU398 cells; settings: SNU-398, 48 h assay, read-out: Caspase Activation Potency EC50 SNU398
[5] = test system: human lung cancer cell line H1299; assay: Caspase cascade activation assay in H1299 cells; settings: NCI-H1299, 24 h or 48 h incubation, read-out: Caspase Activation Potency EC50 H1299
Procedure: (§4) Human breast cancer cell lines T-47D and human lung cancer cell line H1299 were grown according to media component mixtures designated by American Type Culture Collection+10% FCS (Invitrogen Corporation), in a 5% CO2-95% humidity incubator at 37° C. T-47D and H1299 cells were maintained at a cell density between 50 and 80% confluency at a cell density of 0.1 to 0.6×10^6 cells/mL. Cells were harvested at 600×g and resuspended at 0.65×10^6 cells/mL into appropriate media+10% FCS. An aliquot of 22.5 μL of cells was added to a well of a 384-well microtiter plate containing 2.5 μL of a 10% DMSO in RPMI-1640 media solution containing 0.16 to 100 μM of N-(3,4-methylenedioxybenzyl)-6-phenylthieno[3,2-d]pyrimidin-4-amine or other test compound (0.016 to 10 μM final). An aliquot of 22.5 μL of cells was added to a well of a 384-well microtiter plate containing 2.5 μL of a 10% DMSO in RPMI-1640 media solution without test compound as the control sample. The samples were mixed by agitation and then incubated at 37° C. for 24 h or 48 h in a 5% CO2-95% humidity incubator. After incubation, the samples were removed from the incubator and 25 μL of a solution containing 14 μM of N-(Ac-DEVD)-N′-ethoxycarbonyl-R110 (SEQ ID No.:1) fluorogenic substrate (Cytovia, Inc.; WO99/18856), 20% sucrose (Sigma), 20 mM DTT (Sigma), 200 mM NaCl (Sigma), 40 mM Na PIPES buffer pH 7.2 (Sigma), and 500 μg/mL lysolecithin (Calbiochem) was added. The samples were mixed by agitation and incubated at room temperature. Using a fluorescent plate reader (Model SPECTRAfluor Plus, Tecan), an initial reading (T=0) was made approximately 1-2 min after addition of the substrate solution, employing excitation at 485 nm and emission at 530 nm, to determine the background fluorescence of the control sample. After the 3 h incubation, the samples were read for fluorescence as above (T=3 h).
(§5) The Relative Florescence Unit values (RFU) were used to calculate the sample readings as follows: RFU(T=3h)−Control RFU(T=0)=Net RFU(T=3h)
(§6) The activity of caspase cascade activation was determined by the ratio of the net RFU value for N-(3,4-methylenedioxybenzyl)-6-phenylthieno[3,2-d]pyrimidin-4-amine (Example A) or other test compound to that of control samples. The EC50 (nM) was determined by a sigmoidal dose-response calculation (Prism 3.0, GraphPad Software Inc.).

[6] = test system: human breast cancer cell line MDAMB435; assay: Inhibition of cell proliferation (GI50, CellTiter-Glo) in MDAMB435 cells; settings: MDA-MB-435, 48 h, dose for 50% inhibition of cell proliferation
Procedure: as §1, §2, §3

[7] = test system: human colon carcinoma cell line HCT116; assay: Caspase cascade activation assay in HCT116 cells; settings: HCT-116, 48 h assay, read-out: Caspase Activation Potency EC50 HCT116
[8] = test system: human breast cancer cell line T-47D; assay: Inhibition of cell proliferation (GI50, CellTiter-Glo) in T-47D cells; settings: T47D cells, 48 h, dose for 50% inhibition of cell proliferation
Procedure: as §1, §2, §3

[9] = test system: human lymphoma cell line Raji; assay: Caspase cascade activation assay in Raji cells; settings: 48 h assay, read-out: Caspase Activation Potency EC50 Raji
[10] = test system: human breast cancer cell line MX-1; assay: Inhibition of cell proliferation (GI50, CellTiter-Glo) in MX-1 cells; settings: MX1 cells, 48 h, dose for 50% inhibition of cell proliferation
Procedure: as §1, §2, §3

[11] = test system: human breast cancer cell line T-47D; assay: Caspase cascade activation assay in T-47D cells; settings: T47D, 24 h or 48 h incubation, read-out: Caspase Activation Potency EC50 T-47D
Procedure: as §4, §5, §6

[12] = test system: human colon cancer cell line HT29; assay: Inhibition of cell proliferation (GI50, CellTiter-Glo) in HT29 cells; settings: HT-29, 48 h, dose for 50% inhibition of cell proliferation
Procedure: as §1, §2, §3

c1cncc(-c2cc3ncnc(NCc4ccc5c(c4)OCO5)c3s2)c1 [Example 5, N-(3,4-Methylenedioxybenzyl)-6-(pyridin-3-yl)thieno[3,2-d]pyrimidin-4-amine]
EC50 [1]: 1350 nM
GI50 [2]: 1810 nM
EC50 [3]: 1830 nM
EC50 [4]: 1450 nM
EC50 [5]: 1600 nM
GI50 [6]: 155 nM
EC50 [7]: 2530 nM
GI50 [8]: 1290 nM
EC50 [9]: 2760 nM
GI50 [10]: 173 nM
EC50 [11]: 563 nM
GI50 [12]: 5240 nM

c1ccc(-c2cc3ncnc(NCc4ccc5c(c4)OCO5)c3s2)cc1 [Example A, N-(3,4-methylenedioxybenzyl)-6-phenylthieno[3,2-d]pyrimidin-4-amine]
EC50 [1]: 633 nM
GI50 [2]: 600 nM
EC50 [3]: 624 nM
EC50 [4]: 738 nM
EC50 [5]: 506 nM
GI50 [6]: 129 nM
EC50 [7]: 737 nM
GI50 [8]: 600 nM
EC50 [9]: 1130 nM
GI50 [10]: 600 nM
EC50 [11]: 903 nM
GI50 [12]: 600 nM

Source: patent publication US20070099941A1, “N-arylalkyl-thienopyrimidin-4-amines and analogs as activators of caspases and inducers of apoptosis and the use thereof” (Cytovia, Inc., priority 2005, published 2007)
